System: SYO-1 tumor spheroids, viability % test/control
Assay: Anticancer human tumor SYO-1 cell line growth inhibition;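 further: spheroids exposed to agents for 7 days before viability read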;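 on viability, T/C: 100% = DMSO vehicle control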
Details: spheroids with HUVEC and MSC; for IC50: curve of first compound; for viability, T/C: stronger effect = lower value
Source text: Multicellular complex tumor spheroid response to DNA repair inhibitors in combination with DNA-damaging drugs
This study explores the anticancer activities of DNA-damaging drugs and inhibitors of DNA damage repair, both as single agents and in combinations. Complex tumor spheroids comprised of malignant cells, endothelial cells and mesenchymal stem cells served as an in vitro model for human solid tumors. This model system incorporates physiologically relevant features and patient-derived or established malignant cell lines with clinically relevant genetic alterations from many tumor types. Twenty-six patient-derived or established malignant cell lines were evaluated representing sarcoma, melanoma, small cell lung cancer (SCLC), non-small cell lung cancer (NSCLC), as well as bladder, ovarian and pancreatic cancers. The concentration ranges selected for each drug and investigational agent were based upon clinically achievable concentrations if the clinical Cmax of the agent was known.
Compounds. The drugs and compounds olaparib (NSC753686), talazoparib (NSC767125), berzosertib (NSC777718), elimusertib (NSC800525), nedisertib (NSC802822), VX-984 (NSC792969), AZD-1390 (NSC803789), temozolomide (NSC362856), topotecan (NSC609699), trabectedin (NSC813783), staurosporine (NSC755774), and gemcitabine (NSC613327) were obtained from the National Cancer Institute (NCI) Developmental Therapeutics Program Chemical Repository. The FDA-approved anticancer drug set is available from the Developmental Therapeutics Program at https://dtp.cancer.gov/organization/dscb/obtaining/available_plates.htm. […] The stock solutions were prepared in dimethyl sulfoxide (DMSO, Sigma-Aldrich, St. Louis, MO, cat. D2650) at 400-fold the tested concentration and stored at -70 degrees C. Prior to their use, the stock solutions were diluted in fresh medium and the final DMSO concentration in the assay was 0.25% (v/v). All drugs and investigational agents were tested over a range starting from a high concentration at or near the clinical Cmax and decreasing in half-log increments. If the clinical Cmax for an agent had not been determined, the highest concentration tested was 10 microM.
Cell Lines. The patient-derived cancer cell (PDC) lines: 156681-154-R-J1-PDC, 283228-195-R-J1-PDC, 287954-098-R-J1-PDC, 292921-168-R-J2-PDC, 349418-098-R-PDC, 425362-245-T-J1-PDC, 556581-035-R-J1-PDC, and BL0293-F563-PDC were received from the NCI Patient-Derived Models Repository (PDMR, https://pdmr.cancer.gov). The established cell lines HS-SY-2 (RRID:CVCL_8719), MPNST, and SYO-1 (RRID:CVCL_7146) were obtained from the Sloan Kettering Institute. The alveolar soft parts sarcoma cell line ASPS-1 (RRID:CVCL_S738) was established at the NCI and grown from internal seed stocks. The following established cell lines were purchased from the American Type Culture Collection (ATCC, Manassas, VA): G-401 (ATCC, cat. CRL-1441, RRID:CVCL_0270), SW982 (ATCC, cat. HTB-93, RRID:CVCL_1734), VA-ES-BJ (ATCC, cat. CRL-2138, RRID:CVCL_1785), NCI-H719 (ATCC, cat. CRL-5837, RRID:CVCL_1582), NCI-H196 (ATCC, cat. CRL-5823, RRID:CVCL_1509), NCI-H841 (ATCC, cat. CRL-5845, RRID:CVCL_1595), NCI-H1618 (ATCC, cat. CRL-5879, RRID:CVCL_1480), NCI-H1876 (ATCC, cat. CRL-5902, RRID:CVCL_1503), DMS 114 (ATCC, cat. CRL-2066; RRID:CVCL_1174), NCI-H211 (ATCC, cat. CRL-5824; RRID:CVCL_1529), and SW 1271 (ATCC, cat. CRL-2177, RRID:CVCL_1716). The small cell lung cancer cell line COR-L88 was purchased from Sigma-Aldrich (cat. 92031917-1VL, RRID:CVCL_1141). The non-small cell lung cancer cell lines NCI-H226 (RRID:CVCL_1544) and NCI-H322M (RRID:CVCL_1557) were established at the NCI and grown from internal seed stocks. Pooled donor human umbilical vein endothelial cells (HUVEC, Lonza, cat. CC-2519) and human mesenchymal stem cells (hMSC, Lonza, cat. PT-2501) were purchased from Lonza (Walkersville, MD).
Cell Culture. All cells were maintained in an incubator at 37 degrees C and 5% CO2 with 95% humidity. […]

## Cc1cc(C)c(CNC(=O)c2cc(-c3ccc(CN4CCOCC4)cc3)cc3c2cnn3C2CCCC2)c(=O)[nH]1 + CC[C@@]1(O)C(=O)OCc2c1cc1n(c2=O)Cc2cc3c(CN(C)C)c(O)ccc3nc2-1
Second compound 0.003 µM
  IC50: 8350 nM
Second compound 0.00949 µM
  IC50: < 31.6 nM
Second compound 0.03 µM
  IC50: < 31.6 nM
Second compound 0.0949 µM
  IC50: < 31.6 nM
Second compound 0.3 µM
  IC50: < 31.6 nM
Second compound 0.003 µM, first compound 0.0316 µM
  viability, T/C: 89.3%
Second compound 0.003 µM, first compound 0.1 µM
  viability, T/C: 90.5%
Second compound 0.003 µM, first compound 0.316 µM
  viability, T/C: 91.4%
Second compound 0.003 µM, first compound 1 µM
  viability, T/C: 91.9%
Second compound 0.003 µM, first compound 3.16 µM
  viability, T/C: 80.6%
Second compound 0.003 µM, first compound 10 µM
  viability, T/C: 43.9%
Second compound 0.00949 µM, first compound 0.0316 µM
  viability, T/C: 10.4%
Second compound 0.00949 µM, first compound 0.1 µM
  viability, T/C: 9.41%
Second compound 0.00949 µM, first compound 0.316 µM
  viability, T/C: 15.2%
Second compound 0.00949 µM, first compound 1 µM
  viability, T/C: 12.5%
Second compound 0.00949 µM, first compound 3.16 µM
  viability, T/C: 8.6%
Second compound 0.00949 µM, first compound 10 µM
  viability, T/C: 3.78%
Second compound 0.03 µM, first compound 0.0316 µM
  viability, T/C: 1.69%
Second compound 0.03 µM, first compound 0.1 µM
  viability, T/C: 1.58%
Second compound 0.03 µM, first compound 0.316 µM
  viability, T/C: 1.52%
Second compound 0.03 µM, first compound 1 µM
  viability, T/C: 1.59%
Second compound 0.03 µM, first compound 3.16 µM
  viability, T/C: 1.68%
Second compound 0.03 µM, first compound 10 µM
  viability, T/C: 2.01%
Second compound 0.0949 µM, first compound 0.0316 µM
  viability, T/C: 1.54%
Second compound 0.0949 µM, first compound 0.1 µM
  viability, T/C: 1.74%
Second compound 0.0949 µM, first compound 0.316 µM
  viability, T/C: 1.49%
Second compound 0.0949 µM, first compound 1 µM
  viability, T/C: 1.89%
Second compound 0.0949 µM, first compound 3.16 µM
  viability, T/C: 2.19%
Second compound 0.0949 µM, first compound 10 µM
  viability, T/C: 1.93%
Second compound 0.3 µM, first compound 0.0316 µM
  viability, T/C: 1.86%
Second compound 0.3 µM, first compound 0.1 µM
  viability, T/C: 1.8%
Second compound 0.3 µM, first compound 0.316 µM
  viability, T/C: 2.05%
Second compound 0.3 µM, first compound 1 µM
  viability, T/C: 2.19%
Second compound 0.3 µM, first compound 3.16 µM
  viability, T/C: 2.23%
Second compound 0.3 µM, first compound 10 µM
  viability, T/C: 1.83%
